Experimental data as given in patent publication US20040138291A1, “Treatment of sexual dysfunction” (priority 2002, published 2004).

Columns and labels:
[1] = tested on: male spontaneously hypertensive rats (SHR); test: APO-induced penile erectile response in aging SHR with anti-hypertensive and testosterone treatments; assay type: in vivo, rat; settings: for number of erections relative to pre-treatment: summary of Example 3; for increase in number of erections two weeks off treatment: third treatment at 68 weeks, previously untreated rats, low salt diet, 30 mg/kg per day
Protocol: Animals: 30-week-old male spontaneously hypertensive rats (Charles River Laboratories, Montreal, Quebec, Canada) were housed individually at a temperature of 22-24° C. with a 12-hour light/dark cycle. They were provided with free access to regular rodent chow (0.4% Na^+) and tap water. All procedures were performed in accordance with the guidelines of the Canadian Council on Animal Care.
Anti-hypertensive Treatments. Rats were randomly divided into three groups. The control animals received only tap water. One treatment group received the ACE inhibitor enalapril maleate (30 mg/kg per day), and the other received the vasodilator hydralazine (45 mg/kg per day) (enalapril and hydralazine supplied by Sigma Chemical Co., St. Louis, Mo.) administered orally through their drinking water for 2 weeks. Aspartame (100 mg/1) was added to the hydralazine solution to improve the taste. Drug concentrations were calculated based on previously established drinking patterns^(24). Several times throughout the 2-week treatment period, the drug concentrations in the drinking water were adjusted to account for fluctuations in animal weight or fluid intake. Erectile response was measured in all groups with the administration of apomorphine (APO). APO-testing was performed three times before treatment and twice between days 7-14 of treatment.
A second two-week anti-hypertensive treatment was performed at 49 weeks of age. Rather than trying to prevent erectile dysfunction, this treatment attempted to restore erectile function. The same drugs and procedures were used as outlined above. APO-testing was performed twice between days 7-14 of treatment and twice off treatment.
Rats were randomized into four new treatment groups. The previously untreated rats received enalapril (30 mg/kg per day) or losartan (30 mg/kg per day) in their drinking water and were fed a low sodium diet (0.04% Na^+). After 6 days of treatment, a daily 4-hour access to salt containing regular chow (0.4% Na^+) was permitted to allow for a depressor response of 50% of the pre-treatment levels^(25). The treated rats received enalapril (30 mg/kg per day) in their drinking water and a low sodium diet (0.04% Na^+) or a triple therapy treatment^(24) combining hydralazine (45 mg/kg per day), a calcium channel blocker, nifedipine (200 mg per day) and a diuretic, hydrochlorothiazide (100 mg/l) (all drugs supplied by Sigma Chemical Co., St. Louis, Mo.). Hydralazine and hydrochlorothiazide were administered in the drinking water and nifedipine was mixed into ground regular rodent chow during the 12 h dark cycle. Aspartame (100 mg/l) was added to the hydralazine solution to improve the taste. APO-testing was performed twice between days 7-14 of treatment and twice off treatment.
Testosterone was prepared from a stock solution of testosterone propionate (Taro Pharmaceuticals, Bramalea, Ontario) diluted in peanut oil. Each rat received a single dose of testosterone (480 μg/kg) administered via subcutaneous injection in the neck. Testosterone was administered 36 hours prior to APO-testing.
Assessment of Erectile Response. Erectile response was assessed using the well-established bio-assay rat model developed by Heaton et al.^(17). The rats were placed in separate, wire hanging-wall cages with clear Plexiglas bottoms in a dark, quiet room and allowed to acclimate for 20 minutes. Each rat received apomorphine (80 μg/kg) in saline ([…] apomorphine plus 100 μg/ml ascorbic acid) via subcutaneous injection (1 ml/kg) in the loose skin of the neck or back. Erections and yawns were counted at 5-minute intervals over a 30-minute period via videomonitoring in an adjacent room.

[2] = tested on: aged (18 months) female Wistar rats; test: Recovery of APO-induced GVA response in aged female rats with short-term anti-hypertensive treatment; assay type: in vivo, rat
Protocol: Aged (18 months) and control (3-4 months) female Wistar rats were assessed for APO-induced GVA response as described above (Example 1). Aged females were then treated with enalapril (30 mg kg^−1day^−1, orally)+low salt diet for 2 weeks. Prior to, during, and after treatment, apomorphine (80 ug kg^−1, s.c.) was used to elicit GVA responses. The frequency of GVA responses per rat for a 30-minute period was determined as described above (Example 1).

female Wistar rats = test: APO-induced genital vasocongestive arousal (GVA) response bio-assay, intact rats; settings: for average number of GVA responses: APO 80 ug/kg s.c.; for average number of GVA responses / yawning responses: 30 minutes; for yawning responses: intact animals
[3] = tested on: ovariectomized (OVX) Wistar rats; test: APO-induced responses in ovariectomized (OVX) rats; assay type: in vivo, rat
Protocol: A modification of a previous protocol using APO (80 ug/kg in 100 ug/ml ascorbic acid in water, s.c.) was used^(17). […] Rats were placed in hanging cages with bottoms constructed of Plexiglas®, in a dark, quiet room where they were allowed to acclimate for 10 minutes before the testing period. Following APO administration, the number of genital responses and associated yawning responses were recorded for a 30 minute period via a video monitoring system in an adjacent room.
APO-induced responses were determined in ovariectomized (OVX)^(22) rats to determine the effect of reduced levels of endogenous hormones. In brief, animals were anaesthetized with isoflurane gas delivered via a Bain rebreathing system. A small midline dorsal skin incision was made approximately half-way between the middle of the back and the base of the tail. Both ovaries were removed by ligating and severing the junction between the fallopian tube and uterine hom. Post-operative analgesia (buprenorphine, Buprenex™, 0.05 mg/kg) and antibiotics (0.1 ml/100 g body wt., Tribrissen™ 24%, Schering Canada Inc.) were administered daily for 5 days. Animals were given at least one week to recover before the onset of experimentation.

[4] = distribution over the 30-minute period

## CCOC(=O)[C@H](CCc1ccccc1)N[C@@H](C)C(=O)N1CCC[C@H]1C(=O)O [enalapril]
[1]; second treatment at 49 weeks
  average number of erections two weeks after treatment was withdrawn: significantly higher level than the pre treatment values
[1]; second treatment at 49 weeks, not significant
  increase in average number of erections on treatment vs pre treatment: > 2 fold
[1]
  number of erections relative to pre-treatment: significant increases
  increase in number of erections two weeks off treatment: 2 fold
[2]; 1 & 3 week off-treatment, p<0.05
  frequency of APO-induced GVA responses off treatment relative to the treatment period: persistent and significant increase
[2]; compared to pre-treatment levels
  persistence of increased sexual responsiveness to APO after cessation of treatment: persisted for at least ten weeks
[2]; during anti-hypertensive treatment
  overall APO-induced GVA response rate in aged females: 56%
[2]; enalapril 30 mg/kg/day orally + low salt diet, 2 weeks, p=0.065
  APO-induced GVA responses during anti-hypertensive treatment: trend of increasing
[2]; off-treatment
  overall APO-induced GVA response rate in aged females: 93%
[2]; persisted after cessation of the treatment, FIG. 2
  partial behavioural responses: increase in the number of partial behavioural responses
[2]; summary of pilot study
  APO-induced GVA response of aged rats after two weeks of daily treatment: increased to levels of young rats

## CN1CCc2cccc3c2[C@H]1Cc1ccc(O)c(O)c1-3 [APO, apomorphine]
[1]; SHR 30-68 weeks, APO 80 μg/kg s.c.
  APO-induced erectile responses with age: progressive loss of response
Female Wistar rats; 30-minute period
  share of total GVA responses occurring within the first 20 minutes: 80%
Female Wistar rats; APO 40, 80 & 120 ug/kg, result for 80 ug/kg, preliminary studies
  genital grooming responses, dose-response assessment: greatest number of genital grooming responses
Female Wistar rats; any stage of the estrous cycle
  non-GVA responses, APO vs control tested animals: no significant difference
Female Wistar rats; diestrus 1
  average number of GVA responses: 1.13±1.36
  yawning responses: 2±2.50
Female Wistar rats; diestrus II
  average number of GVA responses: 0.88±0.85
Female Wistar rats; [4]
  time of peak of APO-induced GVA responses: 5 to 10 min
  time of peak of APO-induced yawning responses: 15 to 20 min
Female Wistar rats; estrus
  average number of GVA responses: 1.75±1.67
Female Wistar rats; metestrus
  average number of GVA responses: 1.5±1.20
  yawning responses: 3.63±3.96
Female Wistar rats; proestrus, 8 rats
  average number of GVA responses: 1.5±1.06
[2]; APO 80 ug/kg s.c., 30 minute period
  average GVA responses in control (3-4 months) female rats: about 2
[2]; pre-treatment
  APO-induced GVA response rate in aged females: 40%
[2]; prior to anti-hypertensive treatment, APO 80 ug/kg s.c.
  GVA responses in aged female rats relative to controls: significantly fewer
[3]; 8 OVX Wistar rats, 30 minute period
  reduction of GVA responses in OVX rats relative to intact animals: about 80%
[3]; APO administration
  non-GVA responses, OVX vs intact animals: no significant difference

## CCCCc1nc(Cl)c(CO)n1Cc1ccc(-c2ccccc2-c2nn[nH]n2)cc1 [losartan]
[1]
  number of erections relative to pre-treatment: significant increases
  increase in number of erections two weeks off treatment: 2 fold

## CCC(=O)O[C@H]1CC[C@H]2[C@@H]3CCC4=CC(=O)CC[C@]4(C)[C@H]3CC[C@]12C [Testosterone, testosterone propionate]
[1]; 66 weeks of age
  effect of testosterone on erectile response: did not increase erectile response
  effect of testosterone on number of yawns: significantly increase
[1]; control rats and rats treated with hydralazine, 47 and 66 weeks of age, 480 μg/kg s.c.
  effect of testosterone supplementation on number of erections: did not significantly affect
[1]; enalapril treated rats, after the first testosterone treatment
  increase in number of erections with testosterone: 2.5 fold
